The target of one assay is JMJD3 (Homo sapiens, UniProt O15054). As to the kind of experiment: In vitro enzyme inhibition assay for JMJD3 activity (TR-FRET). The assay is classed as biochemical. The method, then: This assay determines the ability of a test compound to inhibit JMJD3 demethylase activity. Baculovirus expressed JMJD3 (GenBank Accession #NM-001080424, AA1043-end) was purchased from BPS Bioscience (Cat#50115).
The enzymatic assay of JMJD3 activity is based upon Time Resolved-Fluorescence Resonance Energy Transfer (TR-FRET) detection. The ability of test compounds to inhibit the activity of JMJD3 was determined in 384-well plate format under the following reaction conditions: 5 nM JMJD3, 250 nM H3K27me3-biotin labeled peptide (Anaspec cat #64367), 0.4 to 2 μM α-ketoglutaric acid in assay buffer of 50 mM HEPES, pH7.3, 0.005% Brij35, 0.5 mM TCEP, 0.2 mg/ml BSA, 50 μM sodium L-ascorbate, and 5 μM ammonium iron(II) sulfate. Reaction product was determined quantitatively by TR-FRET after the addition of detection reagent Phycolink Streptavidin-allophycocyanin (Prozyme) and Europium-anti-H3K27me2 antibody (PerkinElmer) in the presence of 5 mM EDTA in LANCE detection buffer (PerkinElmer) at a final concentration of 50 nM and 1 nM, respectively.
The assay reaction was initiated by the following: […] of the mixture of 750 nM H3K27me3-biotin labeled peptide and 1.2 to 6 μM alpha-ketoglutaric acid with 2 μL of 11-point serial diluted inhibitor in 3% DMSO were added to each well of plate, followed by the addition of 2 μl of 15 nM JMJD3 to initiate the reaction. The reaction mixture was incubated at RT for 30 min, and terminated by the addition of 6 μL of 5 mM EDTA in LANCE detection buffer containing 100 nM Phycolink Streptavidin-allophycocyanin and 2 nM Europium-anti-H3K27me2 antibody. Plates were read by EnVisionMultilabel Reader in TR-FRET mode (excitation at 320 nm, emission at 615 nm and 665 nm) after 1 hr incubation at RT. A ratio from the readout of 665/615 was calculated for each well and fitted to determine inhibition constant (IC50).
(Time-resolved FRET reads energy transfer from a long-lived donor to a nearby acceptor.)

For assay [1], the system named is esophageal squamous cell carcinoma KYSE-150 cells. As to the kind of experiment: Cellular IC50 in KYSE-150 cells. The assay is classed as cell-based. The settings on record: Homo sapiens, one class given per A and B pair. The text has this:
Table 7 provides IC50 values of various compounds disclosed herein, tested in cellular human esophageal squamous cell carcinoma KYSE-150 cells: […]

The next assay addresses Jarid1B (Homo sapiens (Human), UniProt Q9UGL1). As to the kind of experiment: In vitro enzyme inhibition assay for Jarid1B activity (TR-FRET). In kind it is biochemical. On the procedure:
The ability of test compounds to inhibit the activity of Jarid1B was determined in 384-well plate format under the following reaction conditions: 0.8 nM Jarid1B, 300 nM H3K4me3-biotin labeled peptide (Anaspec cat #64357), 2 μM alpha-ketoglutaric acid in assay buffer of 50 mM HEPES, pH7.3, 0.005% Brij35, 0.5 mM TCEP, 0.2 mg/ml BSA, 50 μM sodium L-ascorbate, and 2 μM ammonium iron(II) sulfate. Reaction product was determined quantitatively by TR-FRET after the addition of detection reagent Phycolink Streptavidin-allophycocyanin (Prozyme) and Europium-anti-H3K4me or -H3K4me2 antibody (PerkinElmer) in the presence of 5 mM EDTA in LANCE detection buffer (PerkinElmer) at a final concentration of 25 nM and 1 nM, respectively.
(§1) The assay reaction was initiated by the following: 2 μl of the mixture of 900 nM H3K4me3-biotin labeled peptide and 6 μM alpha-ketoglutaric acid with 2 μl of 11-point serial diluted inhibitor in 3% DMSO was added to each well of the plate, followed by the addition of 2 μl of 2.4 nM Jarid1B to initiate the reaction. The reaction mixture was incubated at RT for 30 min, and terminated by the addition of 6 μl of 5 mM EDTA in LANCE detection buffer containing 50 nM Phycolink Streptavidin-allophycocyanin and 2 nM Europium-anti-H3K4me/H3K4me2 antibody. Plates were read by EnVisionMultilabel Reader in TR-FRET mode (excitation at 320 nm, emission at 615 nm and 665 nm) after 1 hr incubation at RT. A ratio was calculated (665/615) for each well and fitted to determine inhibition constant (IC50).

The target of another assay is JMJD2C (Homo sapiens (Human), UniProt Q9H3R0). Put plainly: In vitro enzyme inhibition assay for JMJD2C activity (TR-FRET). The assay is classed as biochemical. On the procedure: This assay determines the ability of a test compound to inhibit JMJD2C demethylase activity. Baculovirus expressed JMJD2C (GenBank Accession #BC143571, AA 2-372) was purchased from BPS Bioscience (Cat#50105).
JMJD2C, sequence (Q9H3R0 2-372): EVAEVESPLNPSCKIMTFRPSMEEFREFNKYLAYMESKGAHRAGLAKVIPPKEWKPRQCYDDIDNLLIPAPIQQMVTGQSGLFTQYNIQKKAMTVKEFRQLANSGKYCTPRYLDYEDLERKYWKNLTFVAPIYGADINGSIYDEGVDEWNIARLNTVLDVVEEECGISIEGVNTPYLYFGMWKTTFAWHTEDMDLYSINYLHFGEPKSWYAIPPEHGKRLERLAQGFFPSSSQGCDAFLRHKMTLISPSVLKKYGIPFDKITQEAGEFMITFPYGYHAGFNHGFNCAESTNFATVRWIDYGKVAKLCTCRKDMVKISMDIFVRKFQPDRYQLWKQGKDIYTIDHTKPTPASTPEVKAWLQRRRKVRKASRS
The ability of test compounds to inhibit the activity of JMJD2C was determined in 384-well plate format under the following reaction conditions: 0.3 nM JMJD2C, 300 nM H3K9me3-biotin labeled peptide (Anaspec cat #64360), 2 μM alpha-ketoglutaric acid in assay buffer of 50 mM HEPES, pH7.3, 0.005% Brij35, 0.5 mM TCEP, 0.2 mg/ml BSA, 50 μM sodium L-ascorbate, and 2 μM ammonium iron(II) sulfate. Reaction product was determined quantitatively by TR-FRET after the addition of detection reagent Phycolink Streptavidin-allophycocyanin (Prozyme) and Europium-anti-di-methylated histone H3 lysine 9 (H3K9me2) antibody (PerkinElmer) in the presence of 5 mM EDTA in LANCE detection buffer (PerkinElmer) at a final concentration of 50 nM and 1 nM, respectively.
as §1, with “nM H3K9me3-biotin” for “nM H3K4me3-biotin”, “DMSO were” for “DMSO was”, “of 0.9” for “of 2.4”, “nM JMJD2C” for “nM Jarid1B”, “containing 100” for “containing 50”, “nM Europium-anti-H3K9me2” for “nM Europium-anti-H3K4me/H3K4me2”

Setting [2] is: Table 4, cell gives A/B enantiomer values.
Where [3] appears, read: Table 5, one class given per A and B pair.

As a reminder, the IC50 is the concentration that gives 50% inhibition. A high value points to a need for much substance.

Where only a bound is given, the exact number is not on record here.

Jarid1B, sequence (Q9UGL1 whole entry, species assumed): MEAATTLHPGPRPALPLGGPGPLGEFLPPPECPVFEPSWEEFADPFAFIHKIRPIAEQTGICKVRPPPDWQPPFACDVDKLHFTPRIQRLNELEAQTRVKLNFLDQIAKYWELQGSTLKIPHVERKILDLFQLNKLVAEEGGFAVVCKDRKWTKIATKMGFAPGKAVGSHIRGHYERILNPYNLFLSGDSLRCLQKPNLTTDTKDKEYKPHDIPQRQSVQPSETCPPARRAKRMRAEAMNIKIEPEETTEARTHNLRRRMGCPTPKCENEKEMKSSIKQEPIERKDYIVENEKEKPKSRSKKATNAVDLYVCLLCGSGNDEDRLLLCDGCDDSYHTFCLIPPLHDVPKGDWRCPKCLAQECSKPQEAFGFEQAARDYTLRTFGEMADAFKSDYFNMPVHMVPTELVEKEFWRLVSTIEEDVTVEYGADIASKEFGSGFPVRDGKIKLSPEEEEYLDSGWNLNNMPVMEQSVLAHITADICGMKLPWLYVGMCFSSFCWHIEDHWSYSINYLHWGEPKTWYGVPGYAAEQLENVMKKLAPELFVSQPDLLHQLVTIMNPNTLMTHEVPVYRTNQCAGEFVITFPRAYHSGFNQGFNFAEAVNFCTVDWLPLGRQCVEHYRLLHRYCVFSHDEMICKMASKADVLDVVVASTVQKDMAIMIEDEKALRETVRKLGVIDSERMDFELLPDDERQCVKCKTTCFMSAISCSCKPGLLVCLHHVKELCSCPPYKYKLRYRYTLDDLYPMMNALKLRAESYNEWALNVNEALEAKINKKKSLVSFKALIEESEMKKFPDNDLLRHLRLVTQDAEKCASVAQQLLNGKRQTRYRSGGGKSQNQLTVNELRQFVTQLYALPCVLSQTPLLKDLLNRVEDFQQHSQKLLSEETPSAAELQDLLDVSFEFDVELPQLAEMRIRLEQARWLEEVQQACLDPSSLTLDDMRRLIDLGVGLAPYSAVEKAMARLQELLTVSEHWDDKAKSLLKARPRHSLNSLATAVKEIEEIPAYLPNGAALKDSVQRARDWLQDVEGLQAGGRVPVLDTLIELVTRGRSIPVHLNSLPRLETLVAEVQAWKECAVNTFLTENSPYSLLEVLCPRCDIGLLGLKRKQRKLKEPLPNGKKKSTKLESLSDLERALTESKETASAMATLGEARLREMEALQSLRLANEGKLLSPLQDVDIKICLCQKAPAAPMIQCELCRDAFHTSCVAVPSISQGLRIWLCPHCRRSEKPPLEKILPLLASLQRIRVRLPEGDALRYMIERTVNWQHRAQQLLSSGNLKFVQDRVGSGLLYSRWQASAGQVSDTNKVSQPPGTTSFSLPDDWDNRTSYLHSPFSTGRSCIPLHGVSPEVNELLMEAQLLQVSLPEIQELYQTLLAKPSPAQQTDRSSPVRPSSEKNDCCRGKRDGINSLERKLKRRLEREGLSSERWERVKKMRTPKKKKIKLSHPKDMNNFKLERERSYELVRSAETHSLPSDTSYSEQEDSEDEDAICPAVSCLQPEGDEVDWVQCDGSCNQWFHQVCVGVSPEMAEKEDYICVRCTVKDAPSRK

Regarding `Cc1cc(OCC(F)(F)F)ccc1-c1ccc2c(c1)CN[C@@H]2CNc1cnccc1C(=O)O` [Example 7A, 3-[({(1S)-5-[2-methyl-4-(2,2,2-trifluoro-ethoxy)phenyl]isoindolinyl}methyl)amino]pyridine-4-carboxylic acid], the IC50 is 100 to 1000 nM at JMJD3 (setting [2]); 1000 to 10000 nM on JMJD3 (setting [3]); 100 to 1000 nM in assay [1]; at most 100 nM against Jarid1B (setting [2]); at most 100 nM against Jarid1B (setting [3]); 1000 to 10000 nM at JMJD2C (setting [2]). The molecule further returned an IC50 against JMJD2C (setting [3]) of 1000 to 10000 nM.
Turning to `Cc1cc(OCC(F)(F)F)ccc1-c1ccc2c(c1)CN[C@H]2CNc1cnccc1C(=O)O` [Example 7B, 3-[({(1R)-5-[2-methyl-4-(2,2,2-trifluoro-ethoxy)phenyl]isoindolinyl}methyl)amino] pyridine-4-carboxylic acid], the concentration for half-maximal inhibition (IC50) was 1000 to 10000 nM against JMJD3 (setting [2]); 1000 to 10000 nM on JMJD3 (setting [3]); 100 to 1000 nM in assay [1]; at most 100 nM against Jarid1B (setting [2]); at most 100 nM against Jarid1B (setting [3]); 1000 to 10000 nM at JMJD2C (setting [2]). The IC50 at JMJD2C (setting [3]) was in the range of 1000 to 10000 nM.
Consider `Cc1ccccc1-c1ccc2c(c1)CCN[C@H]2CNc1cnccc1C(=O)O` [Example 8A, (R)-3-(((6-(o-tolyl)-1,2,3,4-tetrahydroisoquinolin-1-yl)methyl)amino)isonicotinic Acid], for which the 50% inhibitory concentration (IC50) on JMJD3 (setting [3]) was 1000 to 10000 nM; in assay [1], 100 to 1000 nM; against Jarid1B (setting [3]), at most 100 nM; against JMJD2C (setting [3]), 1000 to 10000 nM.
With `Cc1ccccc1-c1ccc2c(c1)CCN[C@@H]2CNc1cnccc1C(=O)O` [Example 8B, (S)-3-(((6-(o-tolyl)-1,2,3,4-tetrahydroisoquinolin-1-yl)methyl)amino) isonicotinic Acid], the half-inhibitory concentration (IC50) at JMJD3 (setting [3]) is 1000 to 10000 nM; in assay [1], 100 to 1000 nM; against Jarid1B (setting [3]), at most 100 nM; against JMJD2C (setting [3]), 1000 to 10000 nM.
`CCc1ccccc1-c1ccc2c(c1)CCN[C@H]2CNc1cnccc1C(=O)O` [Example 9A, (R)-3-(((6-(2-ethylphenyl)-1,2,3,4-tetrahydroisoquinolin-1-yl)methyl)amino)isonicotinic Acid]: the IC50 against JMJD3 (setting [3]) is 1000 to 10000 nM; in assay [1], 100 to 1000 nM; at Jarid1B (setting [3]) it was at most 100 nM; against JMJD2C (setting [3]), 1000 to 10000 nM.
Take `CCc1ccccc1-c1ccc2c(c1)CCN[C@@H]2CNc1cnccc1C(=O)O` [Example 9B, (S)-3-(((6-(2-ethylphenyl)-1,2,3,4-tetrahydroisoquinolin-1-yl)methyl)amino)isonicotinic Acid]: the half-inhibitory concentration (IC50) on JMJD3 (setting [3]) is 1000 to 10000 nM; in assay [1], 100 to 1000 nM; against Jarid1B (setting [3]), at most 100 nM; against JMJD2C (setting [3]) it was 1000 to 10000 nM.
Take `CCc1ccc(N(C)c2ccc3c(c2)CCN[C@H]3CNc2cnccc2C(=O)O)cc1` [Example 10A, (R)-3-(((6-((4-ethylphenyl)(methyl)amino)-1,2,3,4-tetrahydroisoquinolin-1-yl)methyl)amino)isonicotinic acid]: the IC50 against JMJD3 (setting [3]) was 1000 to 10000 nM; in assay [1] it was 100 to 1000 nM; against Jarid1B (setting [3]) it was at most 100 nM; against JMJD2C (setting [3]) it was 1000 to 10000 nM.
Turning to `CCc1ccc(N(C)c2ccc3c(c2)CCN[C@@H]3CNc2cnccc2C(=O)O)cc1` [Example 10B, (S)-3-(((6-((4-ethylphenyl)(methyl)amino)-1,2,3,4-tetrahydroisoquinolin-1-yl)methyl)amino)isonicotinic acid], the 50% inhibitory concentration (IC50) was 1000 to 10000 nM at JMJD3 (setting [3]), 100 to 1000 nM in assay [1], at most 100 nM against Jarid1B (setting [3]) and 1000 to 10000 nM at JMJD2C (setting [3]).
On to `Cc1ccc(N(C)c2ccc3c(c2)CCN(C)[C@H]3CNc2cnccc2C(=O)O)cc1` [Example 11A, (R)-3-(((2-methyl-6-(methyl(p-tolyl)amino)-1,2,3,4-tetrahydroisoquinolin-1-yl)methyl)amino)isonicotinic acid], for which the IC50 against JMJD3 (setting [3]) is 1000 to 10000 nM; in assay [1], at most 100 nM; against Jarid1B (setting [3]), at most 100 nM; against JMJD2C (setting [3]), 100 to 1000 nM.
With `Cc1ccc(N(C)c2ccc3c(c2)CCN(C)[C@@H]3CNc2cnccc2C(=O)O)cc1` [Example 11B, (S)-3-(((2-methyl-6-(methyl(p-tolyl)amino)-1,2,3,4-tetrahydroisoquinolin-1-yl)methyl)amino)isonicotinic acid], the IC50 is 1000 to 10000 nM against JMJD3 (setting [3]), at most 100 nM in assay [1], at most 100 nM at Jarid1B (setting [3]) and 100 to 1000 nM against JMJD2C (setting [3]).
Take `Cc1ccccc1-c1ccc2c(c1)CCN(C)[C@H]2CNc1cnccc1C(=O)O` [Example 12A, (R)-3-(((2-methyl-6-(o-tolyl)-1,2,3,4-tetrahydroisoquinolin-1-yl)methyl)amino)isonicotinic acid]: the IC50 against JMJD3 (setting [3]) is 1000 to 10000 nM; in assay [1], at most 100 nM; against Jarid1B (setting [3]), at most 100 nM; against JMJD2C (setting [3]), 1000 to 10000 nM.
On to `Cc1ccccc1-c1ccc2c(c1)CCN(C)[C@@H]2CNc1cnccc1C(=O)O` [Example 12B, (S)-3-(((2-methyl-6-(o-tolyl)-1,2,3,4-tetrahydroisoquinolin-1-yl)methyl)amino)isonicotinic acid], for which the IC50 on JMJD3 (setting [3]) was 1000 to 10000 nM; in assay [1], at most 100 nM; against Jarid1B (setting [3]) it was at most 100 nM; against JMJD2C (setting [3]) it was 1000 to 10000 nM.
As for `CCc1ccc(N(C)c2ccc3c(c2)CCN(C)[C@H]3CNc2cnccc2C(=O)O)cc1` [Example 13A, (R)-3-(((6-((4-ethylphenyl)(methyl)amino)-2-methyl-1,2,3,4-tetrahydro-isoquinolin-1-yl)methyl)amino)isonicotinic acid], the half-inhibitory concentration (IC50) on JMJD3 (setting [3]) was 1000 to 10000 nM; in assay [1], at most 100 nM; at Jarid1B (setting [3]), at most 100 nM; on JMJD2C (setting [3]) it was 100 to 1000 nM.
On to `CCc1ccc(N(C)c2ccc3c(c2)CCN(C)[C@@H]3CNc2cnccc2C(=O)O)cc1` [Example 13B, (S)-3-(((6-((4-ethylphenyl)(methyl)amino)-2-methyl-1,2,3,4-tetrahydro-isoquinolin-1-yl)methyl)amino)isonicotinic acid], for which the IC50 was 1000 to 10000 nM on JMJD3 (setting [3]), at most 100 nM in assay [1], at most 100 nM on Jarid1B (setting [3]) and 100 to 1000 nM against JMJD2C (setting [3]).

The record behind these values is patent publication US10059687B2, “Histone demethylase inhibitors” (CELGENE QUANTICEL RESEARCH, INC., priority 2015, dated 2018).
